Measurements from patent US7173004B2, “Macrocyclic isoquinoline peptide inhibitors of hepatitis C virus” (Bristol-Myers Squibb Company, priority 2003, dated 2007).
pIC50: −log10 of the molar value.

Target: T1, HCV NS3/4A protease complex, BMS strain (genotype 1a) (UniProt P27958, C1454S/C1711G, species not given/STRAIN_BMS)
T1 construct: b1001: DNA encoding the recombinant HCV NS3/4A protease complex (amino acids 1027 to 1711) ... a three-lysine solubilizing tail was added at the 3′-end of the NS4A coding region; fused on or other part: Three-lysine solubilising tail at the C-terminus of NS4A; A His tag is implied by the pET21b vector and Ni-NTA purification
Assay: Recombinant HCV NS3/4A protease complex FRET peptide assay, BMS strain
Format: biochemical
Details: NS3/4A BMS Strain; activity range classes
In short: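 Recombinant NS3/4A (aa 1027–1711) from H77C, J4L6S or BMS strains, with C1454S and C1711G mutations and three-lysine tail, expressed in E. coli and Ni-NTA/gel-filtration purified to >90%. Inhibition of cleavage of a FRET peptide substrate measured.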

Row | SMILES | pIC50
1 | COc1ccc2c(O[C@@H]3C[C@H]4C(=O)N[C@]5(C(=O)O)C[C@H]5/C=C\CCCOC[C@H](NC(=O)OC(C)(C)C)C(=O)N4C3)nccc2c1 [Compound 84, (1S,4R,6S,14S,18R)-7-cis-14-tert-Butoxycarbonylamino-18-(6-methoxyisoquinolin-1-yloxy)-2,15-dioxo-12-oxa-3,16-diazatricyclo[14.3.0.0^4,6]-nonadec-7-ene-4-carboxylic acid] | 6.30 to 7.30
2 | CC(C)(C)OC(=O)N[C@H]1CCCCC/C=C\[C@@H]2C[C@@]2(C(=O)O)NC(=O)[C@@H]2C[C@@H](Oc3nccc4ccccc34)CN2C1=O [Compound 1, 14-tert-Butoxycarbonylamino-18-(isoquinolin-1-yloxy)-2,15-dioxo-3,16-diaza-tricyclo[14.3.0.0^4,6]nonadec-7-ene-4-carboxylic acid] | 6.30 to 7.30
3 | COc1ccc2c(O[C@@H]3C[C@H]4C(=O)N[C@]5(C(=O)O)C[C@H]5/C=C\CCCSC(C)(C)[C@H](NC(=O)OC(C)(C)C)C(=O)N4C3)nccc2c1 [Compound 79, (1S,4R,6S,14R,18R)-7-cis-14-tert-Butoxycarbonylamino-13,13-dimethyl-18-(6-methoxy-isoquinolin-1-yloxy)-2,15-dioxo-12-thia-3,16-diazatricyclo[14.3.0.0^4,6]nonadec-7-ene-4-carboxylic acid] | 4.30 to 5.30
4 | COc1ccc2c(O[C@@H]3C[C@H]4C(=O)N[C@]5(C(=O)O)C[C@H]5/C=C\CCCO[C@H](C)[C@H](NC(=O)OC(C)(C)C)C(=O)N4C3)nccc2c1 [Compound 61] | 5.30 to 6.30
5 | COc1ccc2c(OC3CC4C(=O)NC5(C(=O)O)CC5C=CCCCCC(NC(=O)OC(C)(C)C)C(=O)N4C3)nccc2c1 (stereo not drawn) [Compound 143] | 6.30 to 7.30
6 | CC(C)(C)OC(=O)N[C@H]1CN(S(=O)(=O)c2ccccc2[N+](=O)[O-])CCC/C=C\[C@@H]2C[C@@]2(C(=O)O)NC(=O)[C@@H]2C[C@@H](Oc3nccc4ccccc34)CN2C1=O [Compound 144] | 5.30 to 6.30

Same assay, conditions: NS3/4A BMS strain; activity range symbols

Row | SMILES | pIC50
7 | COc1ccc2c(OC3CC4C(=O)NC5(C(=O)NS(=O)(=O)C6CC6)CC5C=CCOCCCC(NC(=O)OC(C)(C)C)C(=O)N4C3)nccc2c1 (stereo not drawn) [Compound 28, [4-Cyclopropanesulfonylaminocarbonyl-18-(6-methoxy-isoquinolin-1-yloxy)-2,15-dioxo-10-oxa-3,16-diaza-tricyclo[14.3.0.0^4,6]nonadec-7-en-14-yl]-carbamic acid tert-butyl ester] | > 7.30
8 | COc1ccc2c(OC3CC4C(=O)NC5(C(=O)NS(=O)(=O)C6CC6)CC5C=CCCCOC(C)C(NC(=O)OC(C)C)C(=O)N4C3)nccc2c1 (stereo not drawn) [Compound 64] | > 7.30
9 | CC(C)S(=O)(=O)NC(=O)[C@@]12C[C@H]1/C=C\CCCCC[C@H](NC(=O)OC(C)(C)C)C(=O)N1C[C@H](Oc3nccc4ccccc34)C[C@H]1C(=O)N2 [Compound 3, [18-(Isoquinolin-1-yloxy)-2,15-dioxo-4-(propane-2-sulfonylaminocarbonyl)-3,16-diaza-tricyclo-[14.3.0.0^4,6]nonadec-7-en-14-yl]-carbamic acid tert-butyl ester] | > 7.30
10 | CCCNC(=O)NC1CCCCCC=CC2CC2(C(=O)NS(=O)(=O)C2CC2)NC(=O)C2CC(Oc3nccc4ccccc34)CN2C1=O (stereo not drawn) [Compound 23] | > 7.30
11 | CC(C)(C)OC(=O)N[C@H]1CCCCC/C=C\[C@@H]2C[C@@]2(C(=O)NS(=O)(=O)C2CC2)NC(=O)[C@@H]2C[C@@H](Oc3nc(-c4ccccc4)cc4ccccc34)CN2C1=O [Compound 58, [(Z)-(1S,4R,14S,18R)-4-cyclopropanesulfonylaminocarbonyl-2,15-dioxo-18-(3-phenyl-isoquinolin-1-yloxy)-3,16-diaza-tricyclo[14.3.0.0^4,6]nonadec-7-en-14-yl]-carbamic acid tert-butyl ester] | > 7.30
12 | CC1(OC(=O)NC2CCCCCC=CC3CC3(C(=O)NS(=O)(=O)C3CC3)NC(=O)C3CC(Oc4nccc5ccccc45)CN3C2=O)CCCC1 (stereo not drawn) [Compound 50] | > 7.30
13 | COc1c(NC2CCCCCC=CC3CC3(C(=O)NS(=O)(=O)C3CC3)NC(=O)C3CC(Oc4nccc5ccccc45)CN3C2=O)c(=O)c1=O (stereo not drawn) [Compound 21] | > 7.30
14 | O=C(N[C@H]1CCCCC/C=C\[C@@H]2C[C@@]2(C(=O)NS(=O)(=O)C2CC2)NC(=O)[C@@H]2C[C@@H](Oc3nccc4ccccc34)CN2C1=O)OC1CCOCC1 [Compound 14, [4-Cyclopropanesulfonylaminocarbonyl-18-(isoquinolin-1-yloxy)-2,15-dioxo-3,16-diaza-tricyclo[14.3.0.0^4,6]nonadec-7-en-14-yl]-carbamic acid tetrahydro-pyran-4-yl ester] | > 7.30
15 | COC(=O)N[C@H]1CCCCC/C=C\[C@@H]2C[C@@]2(C(=O)NS(=O)(=O)C2CC2)NC(=O)[C@@H]2C[C@@H](Oc3nccc4ccccc34)CN2C1=O [Compound 12, [4-Cyclopropanesulfonylaminocarbonyl-18-(isoquinolin-1-yloxy)-2,15-dioxo-3,16-diaza-tricyclo[14.3.0.0^4,6]nonadec-7-en-14-yl]-carbamic acid methyl ester] | > 7.30
16 | COc1ccc2c(OC3CC4C(=O)NC5(C(=O)NS(=O)(=O)C6(C)CC6)CC5C=CCOCCCC(NC(=O)NC5CCCC5)C(=O)N4C3)nccc2c1 (stereo not drawn) [Compound 36] | > 7.30
17 | CCC1(S(=O)(=O)NC(=O)C23CC2C=CCCCS(=O)(=O)CC(NC(=O)OC(C)(C)C)C(=O)N2CC(Oc4nccc5cc(OC)ccc45)CC2C(=O)N3)CC1 (stereo not drawn) [Compound 48] | > 7.30
18 | CCC1(S(=O)(=O)NC(=O)C23CC2C=CCOCCCC(NC(=O)NC2CCCC2)C(=O)N2CC(Oc4nccc5cc(OC)ccc45)CC2C(=O)N3)CC1 (stereo not drawn) [Compound 38] | > 7.30
19 | COc1ccc2c(OC3CC4C(=O)NC5(C(=O)NS(=O)(=O)C6(C)CC6)CC5C=CCCCOC(C)C(NC(=O)NC5CCCC5)C(=O)N4C3)nccc2c1 (stereo not drawn) [Compound 69] | > 7.30
20 | CC(C)(C)OC(=O)NC1CSCCCC=CC2CC2(C(=O)NS(=O)(=O)C2CC2)NC(=O)C2CC(Oc3nccc4c(Cl)cccc34)CN2C1=O (stereo not drawn) [Compound 78] | > 7.30
21 | COc1ccc2c(OC3CC4C(=O)NC5(C(=O)NS(=O)(=O)C6(C)CC6)CC5C=CCCCOC(C)C(NC(=O)OCC(C)(C)C)C(=O)N4C3)nccc2c1 (stereo not drawn) [Compound 67] | > 7.30
22 | CC(=O)NC1CCCCCC=CC2CC2(C(=O)NS(=O)(=O)C2CC2)NC(=O)C2CC(Oc3nccc4ccccc34)CN2C1=O (stereo not drawn) [Compound 26] | > 7.30
23 | CC(C)(C)OC(=O)N[C@H]1CCCCCCC[C@@H]2C[C@@]2(C(=O)NS(=O)(=O)C2CC2)NC(=O)[C@@H]2C[C@@H](Oc3nccc4ccccc34)CN2C1=O [Compound 10, [4-Cyclopropanesulfonylaminocarbonyl-18-(isoquinolin-1-yloxy)-2,15-dioxo-3,16-diaza-tricyclo[14.3.0.0^4,6]nonadec-14-yl]-carbamic acid tert-butyl ester] | > 7.30
24 | COc1ccc2c(OC3CC4C(=O)NC5(C(=O)NS(=O)(=O)C6(C)CC6)CC5C=CCCCSCC(NC(=O)OCC(C)(C)C)C(=O)N4C3)nccc2c1 (stereo not drawn) [Compound 42] | > 7.30
25 | CCC1(S(=O)(=O)NC(=O)C23CC2C=CCCCOC(C)C(NC(=O)OC(C)C)C(=O)N2CC(Oc4nccc5cc(OC)ccc45)CC2C(=O)N3)CC1 (stereo not drawn) [Compound 72] | > 7.30
26 | CCCC1(S(=O)(=O)NC(=O)[C@@]23C[C@H]2/C=C\CCCCC[C@H](NC(=O)OC(C)(C)C)C(=O)N2C[C@H](Oc4nccc5ccccc45)C[C@H]2C(=O)N3)CC1 [Compound 6, [18-(Isoquinolin-1-yloxy)-2,15-dioxo-4-(1-propyl-cyclopropanesulfonylaminocarbonyl)-3,16-diaza-tricyclo[14.3.0.0^4,6]nonadec-7-en-14-yl]-carbamic acid tert-butyl ester] | > 7.30
27 | COc1ccc2c(OC3C[C@H]4C(=O)N[C@]5(C(=O)NS(=O)(=O)C6CC6)C[C@H]5/C=C\CCCSC[C@H](NC(=O)OC(C)(C)C)C(=O)N4C3)nccc2c1 (stereo partly drawn) [Compound 18B, [4-Cyclopropanesulfonylaminocarbonyl-18-(6-methoxy-isoquinolin-1-yloxy)-2,15-dioxo-12-thia-3,16-diaza-tricyclo[14.3.0.0^4,6]nonadec-7-en-14-yl]-carbamic acid tert-butyl ester] | > 7.30
28 | O=C(CC1CC1)NC1CCCCCC=CC2CC2(C(=O)NS(=O)(=O)C2CC2)NC(=O)C2CC(Oc3nccc4ccccc34)CN2C1=O (stereo not drawn) [Compound 22] | > 7.30
29 | COc1ccc2c(OC3CC4C(=O)NC5(C(=O)NS(=O)(=O)C6CC6)CC5C=CCCCOC(C)C(NC(=O)NC5CCCC5)C(=O)N4C3)nccc2c1 (stereo not drawn) [Compound 65] | > 7.30
30 | COc1ccc2c(OC3CC4C(=O)NC5(C(=O)NS(=O)(=O)C6(C)CC6)CC5C=CCCCSCC(NC(=O)OC(C)C)C(=O)N4C3)nccc2c1 (stereo not drawn) [Compound 41] | > 7.30
31 | CCC1(S(=O)(=O)NC(=O)C23CC2C=CCCCSCC(NC(=O)NC2CCCC2)C(=O)N2CC(Oc4nccc5cc(OC)ccc45)CC2C(=O)N3)CC1 (stereo not drawn) [Compound 46] | > 7.30
32 | COc1ccc2c(OC3CC4C(=O)NC5(C(=O)NS(=O)(=O)C6CC6)CC5C=CCCCOC(C)C(NC(=O)OCC(C)(C)C)C(=O)N4C3)nccc2c1 (stereo not drawn) [Compound 63] | > 7.30
33 | CCC1(S(=O)(=O)NC(=O)C23CC2C=CCCCSCC(NC(=O)OC(C)C)C(=O)N2CC(Oc4nccc5cc(OC)ccc45)CC2C(=O)N3)CC1 (stereo not drawn) [Compound 44] | > 7.30
34 | COc1ccc2c(OC3CC4C(=O)NC5(C(=O)NS(=O)(=O)C6CC6)CC5C=CCOCCCC(NC(=O)OCC(C)(C)C)C(=O)N4C3)nccc2c1 (stereo not drawn) [Compound 32] | > 7.30
35 | CCC1(S(=O)(=O)NC(=O)C23CC2C=CCCCSCC(NC(=O)OCC(C)(C)C)C(=O)N2CC(Oc4nccc5cc(OC)ccc45)CC2C(=O)N3)CC1 (stereo not drawn) [Compound 45] | > 7.30
36 | COc1ccc2c(OC3CC4C(=O)NC5(C(=O)NS(=O)(=O)C6(C)CC6)CC5C=CCOCCCC(NC(=O)OC(C)C)C(=O)N4C3)nccc2c1 (stereo not drawn) [Compound 35] | > 7.30
